Toxic doses and inconclusive results are not listed. No stated cut-off is given here; in the data, active means T/C of 150% or more; inactive means T/C below 125%.
Tested on: L1210 leukemia ip in BDF1 mice, survival T/C
Assay: NCI In Vivo Anticancer Drug Screen. Data for tumor model L1210 Leukemia (intraperitoneal) in B6D2F1 (BDF1) mice
Settings: endpoint: mean survival time, higher = longer survival
Procedure, shortened: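 Tumor was transplanted into mice, which were then dosed with test compound or vehicle alone. Survival was recorded for each group, and the treated figure was expressed relative to the control figure.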

[1] = dose: 100.0 mg/kg/injection, schedule: Q04DX003 (ip), vehicle: Klucel (hydroxypropylcellulose) (HPC)
[2] = dose: 200.0 mg/kg/injection, schedule: Q04DX003 (ip), vehicle: Klucel (hydroxypropylcellulose) (HPC)
[3] = dose: 400.0 mg/kg/injection, schedule: Q04DX003 (ip), vehicle: Klucel (hydroxypropylcellulose) (HPC)
[4] = dose: 50.0 mg/kg/injection, schedule: Q01DX009 (ip), vehicle: saline
[5] = dose: 100.0 mg/kg/injection, schedule: Q01DX009 (ip), vehicle: saline
[6] = dose: 200.0 mg/kg/injection, schedule: Q01DX009 (ip), vehicle: saline
[7] = dose: 100.0 mg/kg/injection, schedule: Q01DX009 (sc), vehicle: olive oil, sesame oil, peanut oil
[8] = dose: 100.0 mg/kg/injection, schedule: Q04DX003 (sc), vehicle: olive oil, sesame oil, peanut oil
[9] = dose: 200.0 mg/kg/injection, schedule: Q01DX009 (sc), vehicle: olive oil, sesame oil, peanut oil
[10] = dose: 200.0 mg/kg/injection, schedule: Q04DX003 (sc), vehicle: olive oil, sesame oil, peanut oil
[11] = dose: 400.0 mg/kg/injection, schedule: Q01DX009 (sc), vehicle: olive oil, sesame oil, peanut oil
[12] = dose: 400.0 mg/kg/injection, schedule: Q04DX003 (sc), vehicle: olive oil, sesame oil, peanut oil

Measured: T/C

CCOc1ccc(OCC(=O)O)cc1
inactive: [1] 93 % of control | [2] 89 % of control | [3] 89 % of control

NCC(O)c1ccc(OCc2ccccc2)cc1 (stereo not drawn)
inactive: dose: 100.0 mg/kg/injection, schedule: Q01DX001 (ip), vehicle: saline 94 % of control | dose: 200.0 mg/kg/injection, schedule: Q01DX001 (ip), vehicle: saline 103 % of control | dose: 400.0 mg/kg/injection, schedule: Q01DX001 (ip), vehicle: saline 108 % of control

O=C1c2ccccc2C(=O)c2c(O)ccc(O)c21
inactive: [4] 94 % of control | dose: 100.0 mg/kg/injection, schedule: Q01DX009 (ip), vehicle: saline with Tween-80 106 % of control | [5] 102 % of control | dose: 200.0 mg/kg/injection, schedule: Q01DX009 (ip), vehicle: saline with Tween-80 101 % of control | [6] 102 % of control | dose: 400.0 mg/kg/injection, schedule: Q01DX009 (ip), vehicle: saline with Tween-80 101 % of control

CCC(=O)c1c(C)[nH]c(C)c1C
inactive: dose: 100.0 mg/kg/injection, schedule: Q01DX001 (ip), vehicle: Klucel (hydroxypropylcellulose) (HPC) 96 % of control | dose: 200.0 mg/kg/injection, schedule: Q01DX001 (ip), vehicle: Klucel (hydroxypropylcellulose) (HPC) 95 % of control | dose: 400.0 mg/kg/injection, schedule: Q01DX001 (ip), vehicle: Klucel (hydroxypropylcellulose) (HPC) 96 % of control

O=C(OC(=O)c1ccc([N+](=O)[O-])cc1)c1ccc([N+](=O)[O-])cc1
inactive: [7] 104 % of control | [8] 98 % of control | [9] 106 % of control | [10] 98 % of control | [11] 118 % of control | [12] 101 % of control

O=C1NC2(CCc3ccccc32)C(=O)O1 (stereo not drawn)
inactive: [1] 110 % of control | [2] 100 % of control | [3] 98 % of control

COC(CCC#N)c1ccc(C)cc1 (stereo not drawn)
inactive: [7] 102 % of control | [8] 108 % of control | [9] 91 % of control | [10] 108 % of control | [11] 98 % of control | [12] 96 % of control

CCCCCCCCCCCCCCCC(=O)NNC(C)C
inactive: dose: 25.0 mg/kg/injection, schedule: Q01DX009 (ip), vehicle: Klucel (hydroxypropylcellulose) (HPC) 94 % of control | dose: 25.0 mg/kg/injection, schedule: Q04DX003 (ip), vehicle: Klucel (hydroxypropylcellulose) (HPC) 94 % of control | dose: 50.0 mg/kg/injection, schedule: Q01DX009 (ip), vehicle: Klucel (hydroxypropylcellulose) (HPC) 95 % of control | dose: 50.0 mg/kg/injection, schedule: Q04DX003 (ip), vehicle: Klucel (hydroxypropylcellulose) (HPC) 91 % of control | dose: 100.0 mg/kg/injection, schedule: Q01DX009 (ip), vehicle: Klucel (hydroxypropylcellulose) (HPC) 86 % of control | [1] 105 % of control | dose: 200.0 mg/kg/injection, schedule: Q01DX009 (ip), vehicle: Klucel (hydroxypropylcellulose) (HPC) 91 % of control | [2] 89 % of control | dose: 400.0 mg/kg/injection, schedule: Q01DX009 (ip), vehicle: Klucel (hydroxypropylcellulose) (HPC) 92 % of control | [3] 89 % of control

O=[N+]([O-])c1ccc(N2CCCCC2)c([N+](=O)[O-])c1
inactive: dose: 25.0 mg/kg/injection, schedule: Q01DX009 (ip), vehicle: saline 96 % of control | [4] 102 % of control | [5] 96 % of control | [6] 98 % of control | dose: 400.0 mg/kg/injection, schedule: Q01DX009 (ip), vehicle: saline 96 % of control

O=C(O)C(CO)NS(=O)(=O)Cc1ccccc1 (stereo not drawn)
inactive: dose: 100.0 mg/kg/injection, schedule: Q01DX001 (ip), vehicle: other 104 % of control | dose: 200.0 mg/kg/injection, schedule: Q01DX001 (ip), vehicle: other 96 % of control | dose: 400.0 mg/kg/injection, schedule: Q01DX001 (ip), vehicle: other 96 % of control

— PubChem BioAssay AID248 (DTP/NCI, 2004)
